The record followed here is ChEMBL document CHEMBL1157956, “Aegicerin, the first oleanane triterpene with wide-ranging antimycobacterial activity, isolated from Clavija procera” (J Nat Prod, 2006).

The structures appear in SMILES notation. In brackets after ≈: the same amount, converted by molar mass.

Test [1] deals with Mycobacterium tuberculosis. As to the kind of experiment: Antimicrobial activity against isoniazid-resistant Mycobacterium tuberculosis isolate by alamar blue assay. The class given is functional. A general note: The colour change of resazurin is a common sign of viable cells or microbes.
The test system of test [2] is Mycobacterium tuberculosis. As to the kind of experiment: Antimicrobial activity against multidrug-resistant Mycobacterium tuberculosis isolate by alamar blue assay. The format is functional.

For orientation: MIC means the lowest concentration found to suppress growth. Regarding `CC1(C)CC[C@]23CO[C@@]4(CC[C@@H]5[C@@]6(C)CC[C@H](O)C(C)(C)[C@@H]6CC[C@@]5(C)[C@]4(C)CC2=O)[C@@H]3C1` [AEGICERIN], the MIC in test [1] and in test [2] was 1.6 µg/mL (≈ 3.5 µM) in each case.
`NNC(=O)c1ccncc1` [ISONIAZID]: the MIC in test [1] is 2 µg/mL (≈ 14.6 µM); in test [2] it was above 4 µg/mL.
In the same order, the values of `CC1(C)CC[C@]23CO[C@@]4(CC[C@@H]5[C@@]6(C)CC[C@H](O)C(C)(C)[C@@H]6CC[C@@]5(C)[C@]4(C)C[C@H]2O)[C@@H]3C1` [PROTOPRIMULAGENIN A] are 200 µg/mL (≈ 436 µM) and 200 µg/mL (≈ 436 µM).
Turning to `CO[C@H]1/C=C/O[C@@]2(C)Oc3c(C)c(O)c4c(O)c(c(/C=N/N5CCN(C)CC5)c(O)c4c3C2=O)NC(=O)/C(C)=C\C=C\[C@H](C)[C@H](O)[C@@H](C)[C@@H](O)[C@@H](C)[C@H](OC(C)=O)[C@@H]1C` [RIFAMPIN], the MIC is 0.063 µg/mL (≈ 0.0766 µM) in test [1] and above 2 µg/mL in test [2].
